Source: patent US20180000085A1, “USE OF PICOLINAMIDE COMPOUNDS WITH FUNGICIDAL ACTIVITY” (DOW AGROSCIENCES LLC, priority 2014, published 2018)

Columns and labels:
Zymoseptoria tritici = experiment: Leaf blotch of wheat (SEPTTR) disease control on wheat seedlings; type: in vivo; set-up: key to SEPTTR 1DP, HV activity at 100 ppm (% control rating) / SEPTTR 3DC, HV activity at 100 ppm (% control rating) / SEPTTR disease control, 1DP / SEPTTR disease control, 3DC / SEPTTR 1DP disease control rating, HV activity / SEPTTR 3DC disease control rating, HV activity / SEPTTR 3DC, LV activity at 125.1 g/H (% Control rating) / SEPTTR 1DP, LV activity at 125.1 g/H (% Control rating) / SEPTTR 1DP disease control rating, LV activity at 125.1 g/H / SEPTTR 3DC disease control rating, LV activity at 125.1 g/H / SEPTTR 3DC disease control rating, HV activity at 100 ppm / SEPTTR 1DP disease control rating, HV activity at 100 ppm / HV activity at 100 ppm SEPTTR 3DC (disease control rating) / HV activity at 100 ppm SEPTTR 1DP (disease control rating) / LV activity at 125.1 g/H SEPTTR 1DP (disease control rating) / LV activity at 125.1 g/H SEPTTR 3DC (disease control rating): A: > 80; B: ≤ 80; C: Not Tested; D: No Activity Observed in the Reported Assay; conditions: for SEPTTR 1DP disease control rating, HV activity / SEPTTR 3DC disease control rating, HV activity: HV application at 100 ppm; for SEPTTR 1DP disease control rating, HV activity / SEPTTR 1DP, LV activity at 125.1 g/H (% Control rating) / LV activity at 125.1 g/H SEPTTR 1DP (disease control rating): 1 Day Protectant; for SEPTTR 1DP disease control rating, HV activity / SEPTTR 3DC disease control rating, HV activity / LV activity at 125.1 g/H SEPTTR 1DP (disease control rating) / LV activity at 125.1 g/H SEPTTR 3DC (disease control rating): wheat leaf blotch; for SEPTTR 3DC disease control rating, HV activity / SEPTTR 3DC, LV activity at 125.1 g/H (% Control rating) / LV activity at 125.1 g/H SEPTTR 3DC (disease control rating): 3 Day Curative; for SEPTTR 1DP, LV activity at 125.1 g/H (% Control rating) / SEPTTR 3DC, LV activity at 125.1 g/H (% Control rating) / LV activity at 125.1 g/H SEPTTR 1DP (disease control rating) / LV activity at 125.1 g/H SEPTTR 3DC (disease control rating): low volume application
Puccinia triticina = experiment: Wheat brown rust (PUCCRT) disease control on wheat seedlings; type: in vivo; set-up: key to PUCCRT 3DC, HV activity at 100 ppm (% control rating) / PUCCRT disease control, 3DC / PUCCRT 1DP disease control rating, HV activity / PUCCRT 3DC disease control rating, HV activity / PUCCRT 3DC, LV activity at 125.1 g/H (% Control rating) / PUCCRT 1DP, LV activity at 125.1 g/H (% Control rating) / PUCCRT 3DC disease control rating, LV activity at 125.1 g/H / PUCCRT 1DP disease control rating, LV activity at 125.1 g/H / PUCCRT 3DC disease control rating, HV activity at 100 ppm / PUCCRT 1DP disease control rating, HV activity at 100 ppm / HV activity at 100 ppm PUCCRT 3DC (disease control rating) / LV activity at 125.1 g/H PUCCRT 1DP (disease control rating) / LV activity at 125.1 g/H PUCCRT 3DC (disease control rating): A: > 80; B: ≤ 80; C: Not Tested; D: No Activity Observed in the Reported Assay; conditions: for PUCCRT 1DP disease control rating, HV activity / PUCCRT 3DC disease control rating, HV activity: HV application at 100 ppm; for PUCCRT 1DP disease control rating, HV activity / PUCCRT 1DP, LV activity at 125.1 g/H (% Control rating) / LV activity at 125.1 g/H PUCCRT 1DP (disease control rating): 1 Day Protectant; for PUCCRT 1DP disease control rating, HV activity / PUCCRT 3DC disease control rating, HV activity / LV activity at 125.1 g/H PUCCRT 1DP (disease control rating) / LV activity at 125.1 g/H PUCCRT 3DC (disease control rating): wheat brown rust; for PUCCRT 3DC disease control rating, HV activity / PUCCRT 3DC, LV activity at 125.1 g/H (% Control rating) / LV activity at 125.1 g/H PUCCRT 3DC (disease control rating): 3 Day Curative; for PUCCRT 1DP, LV activity at 125.1 g/H (% Control rating) / PUCCRT 3DC, LV activity at 125.1 g/H (% Control rating) / LV activity at 125.1 g/H PUCCRT 1DP (disease control rating) / LV activity at 125.1 g/H PUCCRT 3DC (disease control rating): low volume application

**Q.** How did the “SEPTTR 1DP disease control rating, HV activity” value (Zymoseptoria tritici) turn out when COc1ccnc(C(=O)NC(C)C(=O)OC(C)C(Oc2cccc(-c3ccccc3)c2)C(C)C)c1O (stereo not shown) [Cmpd 389] was run?
**A.** Its value is “B (≤ 80)”.

**Q.** And the “SEPTTR 3DC disease control rating, HV activity” value (Zymoseptoria tritici)?
**A.** The value was “B (≤ 80)”.

**Q.** What about the “PUCCRT 1DP disease control rating, HV activity” value (Puccinia triticina) of the same molecule?
**A.** Its value is “A (> 80)”.

**Q.** And the “PUCCRT 3DC disease control rating, HV activity” value (Puccinia triticina)?
**A.** The value was “D”.

**Q.** What does the source list for COc1ccnc(C(=O)N[C@@H](C)C(=O)O[C@@H](C)[C@H](Oc2ccc(-c3ccccc3)cc2)C(C)C)c1OC(C)=O [Cmpd 625]?
**A.** SEPTTR 1DP, LV activity at 125.1 g/H (% Control rating) (Zymoseptoria tritici): D; SEPTTR 3DC, LV activity at 125.1 g/H (% Control rating) (Zymoseptoria tritici): D; PUCCRT 1DP, LV activity at 125.1 g/H (% Control rating) (Puccinia triticina): A (> 80); PUCCRT 3DC, LV activity at 125.1 g/H (% Control rating) (Puccinia triticina): B (≤ 80)

**Q.** What does the source list for CCOc1ccnc(C(=O)N[C@@H](C)C(=O)O[C@@H](C)[C@H](Oc2ccccc2)C(C)C)c1O [Cmpd 418]?
**A.** SEPTTR 1DP disease control rating, HV activity (Zymoseptoria tritici): B (≤ 80); SEPTTR 3DC disease control rating, HV activity (Zymoseptoria tritici): D; PUCCRT 1DP disease control rating, HV activity (Puccinia triticina): B (≤ 80); PUCCRT 3DC disease control rating, HV activity (Puccinia triticina): A (> 80)

**Q.** COc1ccnc(C(=O)N[C@@H](C)C(=O)O[C@@H](C)COC(C)(C)C)c1O [Cmpd 341] was tested. Which “SEPTTR 1DP disease control rating, HV activity” value (Zymoseptoria tritici) did it give?
**A.** The value was “B (≤ 80)”.

**Q.** What about the “SEPTTR 3DC disease control rating, HV activity” value (Zymoseptoria tritici) of the same molecule?
**A.** The value was “B (≤ 80)”.

**Q.** What about the “PUCCRT 1DP disease control rating, HV activity” value (Puccinia triticina) of the same molecule?
**A.** The value was “B (≤ 80)”.

**Q.** And the “PUCCRT 3DC disease control rating, HV activity” value (Puccinia triticina)?
**A.** Its value is “B (≤ 80)”.

**Q.** Which results are given for CCC[C@@H](Oc1ccc(C)cc1Cl)[C@H](C)OC(=O)[C@H](C)NC(=O)c1nccc(OC)c1OC(C)=O [Cmpd 1068]?
**A.** LV activity at 125.1 g/H SEPTTR 1DP (disease control rating) (Zymoseptoria tritici): B (≤ 80); LV activity at 125.1 g/H SEPTTR 3DC (disease control rating) (Zymoseptoria tritici): B (≤ 80); LV activity at 125.1 g/H PUCCRT 1DP (disease control rating) (Puccinia triticina): A (> 80); LV activity at 125.1 g/H PUCCRT 3DC (disease control rating) (Puccinia triticina): B (≤ 80)

**Q.** How did the “LV activity at 125.1 g/H SEPTTR 1DP (disease control rating)” value (Zymoseptoria tritici) turn out when COc1ccnc(C(=O)NC(C)C(=O)OC(C(C)C)C(Oc2ccccc2)C(C)C)c1OCOC(C)=O (stereo not shown) [Cmpd 1088] was run?
**A.** The value was “D”.

**Q.** What about the “LV activity at 125.1 g/H SEPTTR 3DC (disease control rating)” value (Zymoseptoria tritici) of the same molecule?
**A.** Its value is “D”.

**Q.** What about the “LV activity at 125.1 g/H PUCCRT 1DP (disease control rating)” value (Puccinia triticina) of the same molecule?
**A.** The value was “B (≤ 80)”.

**Q.** And the “LV activity at 125.1 g/H PUCCRT 3DC (disease control rating)” value (Puccinia triticina)?
**A.** The value was “D”.

**Q.** How did the “SEPTTR 1DP disease control rating, HV activity” value (Zymoseptoria tritici) turn out when CCCOC[C@@H](Oc1ccccc1)[C@H](C)OC(=O)[C@H](C)NC(=O)c1nccc(OC)c1O [Cmpd 310] was run?
**A.** Its value is “D”.

**Q.** And the “SEPTTR 3DC disease control rating, HV activity” value (Zymoseptoria tritici)?
**A.** Its value is “B (≤ 80)”.

**Q.** What about the “PUCCRT 1DP disease control rating, HV activity” value (Puccinia triticina) of the same molecule?
**A.** The value was “A (> 80)”.

**Q.** What about the “PUCCRT 3DC disease control rating, HV activity” value (Puccinia triticina) of the same molecule?
**A.** The value was “A (> 80)”.

**Q.** Which results are given for CCC(CC)[C@@H](Oc1cccc(Cl)c1)[C@H](C)OC(=O)[C@@H](NC(=O)c1nccc(OC)c1OCOC(C)=O)C(C)C [Cmpd 647]?
**A.** SEPTTR 1DP, LV activity at 125.1 g/H (% Control rating) (Zymoseptoria tritici): A (> 80); SEPTTR 3DC, LV activity at 125.1 g/H (% Control rating) (Zymoseptoria tritici): B (≤ 80); PUCCRT 1DP, LV activity at 125.1 g/H (% Control rating) (Puccinia triticina): A (> 80); PUCCRT 3DC, LV activity at 125.1 g/H (% Control rating) (Puccinia triticina): B (≤ 80)

**Q.** What does the source list for COc1ccnc(C(=O)NC(C)C(=O)OC(C)C(Oc2ccc(C(F)(F)F)cc2)C(C)C)c1O (stereo not shown) [Cmpd 394]?
**A.** SEPTTR 1DP disease control rating, HV activity (Zymoseptoria tritici): A (> 80); SEPTTR 3DC disease control rating, HV activity (Zymoseptoria tritici): B (≤ 80); PUCCRT 1DP disease control rating, HV activity (Puccinia triticina): B (≤ 80); PUCCRT 3DC disease control rating, HV activity (Puccinia triticina): B (≤ 80)

**Q.** How did the “SEPTTR 1DP disease control rating, HV activity” value (Zymoseptoria tritici) turn out when CCC(CC)C(Oc1ccc(Cl)cc1Cl)C(C)OC(=O)C(CC(C)C)NC(=O)c1nccc(OC)c1O (stereo not shown) [Cmpd 430] was run?
**A.** Its value is “D”.

**Q.** What about the “SEPTTR 3DC disease control rating, HV activity” value (Zymoseptoria tritici) of the same molecule?
**A.** The value was “D”.

**Q.** And the “PUCCRT 1DP disease control rating, HV activity” value (Puccinia triticina)?
**A.** The value was “B (≤ 80)”.

**Q.** What about the “PUCCRT 3DC disease control rating, HV activity” value (Puccinia triticina) of the same molecule?
**A.** Its value is “D”.
